Here are results for 1 compound from patent US12667538B2, “Vilazodone pharmaceutical composition, preparation method therefor and use thereof” (SHANGHAI YONSUN BIOTECHNOLOGY CO., LTD., priority 2020, dated 2026).

The series can be described thus: Particle size and distribution on a laser particle analyzer. The format is physicochemical. The following applies: drug substance used for formulas 14-23. Here is the method:
According to formula 1 shown in Table 1, the raw and auxiliary materials were weighed out and well mixed to obtain the suspension. The particle size was measured on a laser particle analyzer (parameter settings: dispersion medium: water; refractive index of dispersion medium: 1.333; absorbance of sample material: 0.05; refractive index of sample material: 1.711). The particle size morphology of the particles in the ground suspension was observed under a polarized light microscope. The particle size morphology of the solid particles of vilazodone in the suspension under the polarized light microscope is shown in FIG. 2.
The particle size of formulas 3, 4 and 5 and the distribution thereof were measured on a laser particle analyzer using the following parameter settings: dispersion medium: water; refractive index of dispersion medium: 1.333; absorbance of sample material: 0.05; refractive index of sample material: 1.711. The particle size and the distribution of formula 6 were measured on a nano particle size analyzer (NICOMP Particle Sizing Systems) using the following parameter settings: dispersion medium: water; refractive index of dispersion medium: 1.333; viscosity: 0.933 cp; temperature: 23° C.; luminous intensity setting: 300 kHz.
The particle size of formula 7 and the distribution thereof were measured on a laser particle analyzer using the following parameter settings: dispersion medium: water; refractive index of dispersion medium: 1.333; absorbance of sample material: 0.05; refractive index of sample material: 1.711. […]
According to the formulas shown in Table 12, the drug substance of different particle sizes and auxiliary materials were weighed out and well mixed by stirring to form suspensions, and formulas 8-13 were obtained. The particle size and the distribution thereof were measured on a laser particle analyzer using the following parameter settings: dispersion medium: water; refractive index of dispersion medium: 1.333; absorbance of sample material: 0.05; refractive index of sample material: 1.711. […]

On to `Cl.N#Cc1ccc2[nH]cc(CCCCN3CCN(c4ccc5oc(C(N)=O)cc5c4)CC3)c2c1` [Vilazodone hydrochloride, 2-benzofurancarboxamide, 5-[4-[4-(5-cyano-1H-indol-3-yl)butyl]-1-piperazinyl] hydrochloride (1:1)], for which the D10 is on record as 8.4 μm, the D50 is 20.6 μm and the D90 came to 43.9 μm.
